From patent US20240026461A1, “BCL10 MUTATIONS AS BIOMARKERS FOR TARGETED THERAPY IN B CELL LYMPHOMAS” (priority 2022, published 2024) come the findings set out here.

The test system of assay [1] is OCI-LY10^E140X. As to the kind of experiment: Growth inhibition assay (CellTiter Glo), OCI-Ly10 cells expressing BCL10 E140X. The assay is classed as cell-based. Particulars: Homo sapiens, 96 h, read-out: IC50, growth inhibition, MALT1 inhibitors. As for the experimental part: (§1) DLBCL cell lines were cultured in exponential condition and the cell growth was determined by CellTiter Glo (Promega). 3000-5000 cells were seeded and cultured in each well of 384 well plate for 96 h and treated with compounds every 48 h. Luminescence was read at the endpoint with the Synergy NEO microplate reader (BioTek). The value of compound treated cells was normalized to their vehicle treated controls and then used to calculate IC50 in GraphPad Prism (RRID:SCR_002798).
(§2) Given the distinct functional profiles, CARD11 dependencies, and MALT1 activation effects of the BCL10 CARD and truncation mutants, the inventors designed experiments to evaluate whether, and to what extent, these mutant BCL10 proteins might confer BTK inhibitor resistance. Isogenic ABC-DLBCL cells expressing BCL10WT, BCL10^R58Q and BCL10^E140X proteins were treated with escalating doses of three chemically distinct covalent BTK inhibitors: ibrutinib, acalabrutinib, or zanubrutinib. The cellular proliferation rates of the treated cells were measured using an ATP fluorescence assay after 96 hours of drug exposure.
(§3) Isogenic BCL10^WT, BCL10^R58Q and BCL10^E140X ABC-DLBCLs were exposed to increasing concentrations of each of these compounds for 96 hours.
Background: ATP-based viability assays read luminescence as a measure of living cells.

The subject of assay [2] is HBL1^R58Q. In words: Growth inhibition assay (CellTiter Glo), HBL1 cells expressing BCL10 R58Q. The assay is classed as cell-based. Particulars: Homo sapiens, 96 h, read-out: IC50, growth inhibition, MALT1 inhibitors. How it is done:
as §1, §2, §3

Assay [3] concerns HBL1^WT. In words: Growth inhibition assay (CellTiter Glo), HBL1 cells expressing BCL10 WT. Type of assay: cell-based. Particulars: Homo sapiens, 96 h, read-out: IC50, growth inhibition, MALT1 inhibitors. How it is done: as §1, §2, §3
In assay [4] the test system is BCL10^E140X ABC-DLBCL xenografts. As to the kind of experiment: Xenograft, JNJ-67690246 treatment, BCL10^E140X tumors. Particulars: OCI-Ly10 cell line, p.o. 100 mg/kg twice per day. The assay is classed as in vivo, mice. From the text: FIG. 7A-7K illustrate that subjects with BCL10 truncating mutant lymphomas are hypersensitive to MALT1 protease inhibitors. FIG. 7A graphically illustrates growth inhibition of human diffuse large B-cell lymphoma (HBL1) cells and OCI-Ly10 lymphoma cells expressing wild type or mutant BCL10 proteins in response to MALT1 inhibitor C3. X axis, concentration of compound (M); Y axis, inhibition of cell growth normalized to vehicle treated cells. **p<0.01; ***p<0.001; ****p<0.0001; ns, not significant. […] FIG. 7D graphically illustrates luciferase activity measured in the MALT1 GloSensor reporter cell lines treated with MALT1 inhibitor C3. […] FIG. 7E graphically illustrates luciferase activity measured in the MALT1 GloSensor reporter cell lines treated with MALT1 inhibitor MLT-748. […] FIG. 7F graphically illustrates luciferase activity measured in the MALT1 GloSensor reporter cell lines treated with MALT1 inhibitor JNJ-67690246. […] AUC was calculated with Prism. *p<0.05. FIG. 7J graphically illustrates tumor weight measured at the endpoint of the studies described in FIG. 7G-7I. *p<0.05.
All mice experiments were approved by Institutional Animal Care & Use Committee (IACUC) at Weill Cornell Medicine and were performed following the IACUC guidelines. […] Tumor volume was monitored 2˜3 times/week with digital caliper and calculated using the following formula. smallest diameter^2×largest diameter×0.5. […]

SMILES strings stand for the structures.

For `Cc1nc(-n2nccn2)c(Cl)cc1NC(=O)c1cnn(-c2cccc3c(=O)[nH]ccc23)c1C(F)(F)F` [JNJ-67690246], the IC50 (usually the concentration that inhibits the measured activity by half) in assay [1] worked out at 270 ± 20 nM; in assay [2], 5770 ± 3020 nM; in assay [3], 1580 ± 500 nM. The “growth of lymphoma xenografts” value in assay [4] is given as “significant reduction in growth”.
